# Test results published in ChEMBL document CHEMBL5576064, “Development of carbonic anhydrase IX-targeting molecular-targeted photodynamic therapy” (Bioorg Med Chem Lett, 2024).
# The source made the active and inactive calls. The calls are words filed in the database; no cut-off is given here.
# Columns and labels:
# A549 [1] = experiment: Photodynamic antitumor activity against human A549 cells assessed as inhibition of cell growth at 0.001 to 30 uM incubated for 60 mins followed by compound washout and light irradiation measured after 72 hrs by MTT assay; type: functional, cell-based; settings: dose 0.001-30 µM
# U-87 MG [2] = experiment: Photodynamic antitumor activity against human U87 cells assessed as increase in ATP release incubated for 1 hr followed by compound washout and 540 nm light irradiation measured upto 10 mins by luciferase assay; type: functional, cell-based; settings: U-87MG ATCC
# [3] = molecular target: Carbonic anhydrase 9 (Homo sapiens) (UniProt Q16790); experiment: Inhibition of carbonic anhydrase IX in human A549 cells assessed as downregulation of CAIX expression at 1 uM incubated for 60 mins by Western blotting analysis; type: cell-based
# 4T1 [4] = experiment: Photodynamic antitumor activity against mouse 4T1 cells implanted mouse model assessed as reduction in tumor growth at 5 mg/kg,TOP administration followed by light irradiation measured after 12 days; type: functional, organism-based; settings: time 12.0 day
# A549 [5] = experiment: Photodynamic antitumor activity against human A549 cells assessed as inhibition of cell growth incubated for 60 mins followed by compound washout and light irradiation measured after 72 hrs by MTT assay; type: functional, cell-based; settings: A549, light or radiation study
# [6] = molecular target: Carbonic anhydrase 9 (Homo sapiens) (UniProt Q16790); experiment: Inhibition of carbonic anhydrase IX in human U87 cells assessed as downregulation of CAIX expression at 1 uM incubated for 60 mins followed by compound washout and 540 nm light irradiation measured after 15 mins by Hoechst 33342 staining based immunostaining analysis; type: cell-based
# 4T1 [7] = experiment: Photodynamic antitumor activity against mouse 4T1 cells implanted mouse model assessed as increase in tumor necrosis at 5 mg/kg,TOP administration followed by light irradiation measured after 12 days; type: functional, organism-based; settings: time 12.0 day
# U-87 MG [8] = experiment: Photodynamic antitumor activity against human U87 cells assessed as inhibition of cell growth at 1 uM incubated for 60 mins followed by compound washout and addition of ROS scavenger D-mannitol and light irradiation measured after 72 hrs by MTT assay; type: functional, cell-based; settings: U-87MG ATCC
# U-87 MG [9] = experiment: Photodynamic antitumor activity against human U87 cells assessed as inhibition of cell growth at 1 uM incubated for 60 mins followed by compound washout and addition of ROS scavenger Trolox and light irradiation measured after 72 hrs by MTT assay; type: functional, cell-based; settings: U-87MG ATCC
# U-87 MG [10] = experiment: Photodynamic antitumor activity against human U87 cells assessed as inhibition of cell growth at 1 uM incubated for 60 mins followed by compound washout and addition of ROS scavenger NaN3 upto 30 uM and light irradiation measured after 72 hrs by MTT assay; type: functional, cell-based; settings: U-87MG ATCC
# U-87 MG [11] = experiment: Photodynamic antitumor activity against human U87 cells assessed as inhibition of cell growth at 1 uM incubated for 60 mins followed by compound washout and addition of ROS scavenger NaP and light irradiation measured after 72 hrs by MTT assay; type: functional, cell-based; settings: U-87MG ATCC
# [12] = molecular target: Carbonic anhydrase 9 (Homo sapiens) (UniProt Q16790); experiment: Inhibition of carbonic anhydrase IX in human A549 cells assessed as downregulation of CAIX expression at 1 uM incubated for 60 mins followed by compound washout and 540 nm light irradiation measured after 15 mins by Western blotting analysis; type: cell-based
# U-87 MG [13] = experiment: Antitumor activity against human U87 cells assessed as inhibition of cell growth at 0.001 to 30 uM incubated for 60 mins by MTT assay; type: functional, cell-based; settings: U-87MG ATCC, dose 0.001-30 µM
# A549 [14] = experiment: Antitumor activity against human A549 cells assessed as inhibition of cell growth at 0.001 to 30 uM incubated for 60 mins by MTT assay; type: functional, cell-based; settings: dose 0.001-30 µM
# U-87 MG [15] = experiment: Photodynamic antitumor activity against human U87 cells assessed as inhibition of cell growth at 1 uM incubated for 60 mins followed by compound washout and addition of ROS scavenger Tiron and light irradiation measured after 72 hrs by MTT assay; type: functional, cell-based; settings: U-87MG ATCC
# U-87 MG [16] = experiment: Photodynamic antitumor activity against human U87 cells assessed as inhibition of cell growth incubated for 60 mins followed by compound washout and light irradiation measured after 72 hrs by MTT assay; type: functional, cell-based, U-87MG ATCC; settings: light or radiation study
# [17] = molecular target: Carbonic anhydrase 9 (Homo sapiens) (UniProt Q16790); experiment: Inhibition of carbonic anhydrase IX in human U87 cells assessed as nuclear localization of CAIX at 1 uM incubated for 60 mins followed by compound washout and 540 nm light irradiation measured after 15 mins by Hoechst 33342 staining based immunostaining analysis; type: cell-based
# [18] = molecular target: Carbonic anhydrase 9 (Homo sapiens) (UniProt Q16790); experiment: Inhibition of carbonic anhydrase IX in human U87 cells assessed as downregulation of CAIX expression at 1 uM incubated for 60 mins followed by compound washout and 540 nm light irradiation measured after 15 mins by Western blotting analysis; type: cell-based
# [19] = Toxicity in mouse implanted with mouse 4T1 cells assessed as change in body weight at 5 mg/kg,TOP administration followed by light irradiation measured after 12 days; type: organism-based; settings: in vivo, topical_or_ocular, 288 h, time 12 day
# [20] = molecular target: Carbonic anhydrase 9 (Homo sapiens) (UniProt Q16790); experiment: Inhibition of carbonic anhydrase IX in human U87 cells assessed as downregulation of CAIX expression at 1 uM incubated for 60 mins by Western blotting analysis; type: cell-based
# 4T1 [21] = experiment: Photodynamic antitumor activity against mouse 4T1 cells implanted mouse model assessed as increase in tumor degeneration at 5 mg/kg,TOP administration followed by light irradiation measured after 12 days; type: functional, organism-based; settings: time 12.0 day
# 4T1 [22] = experiment: Photodynamic antitumor activity against mouse 4T1 cells implanted mouse model assessed as reduction in tumor growth at 5 mg/kg,TOP administration measured after 12 days; type: functional, organism-based; settings: time 12.0 day
# U-87 MG [23] = experiment: Photodynamic antitumor activity against human U87 cells assessed as inhibition of cell growth at 1 uM incubated for 60 mins followed by compound washout and addition of ROS scavenger NaN3 and light irradiation measured after 72 hrs by MTT assay; type: functional, cell-based; settings: U-87MG ATCC
# U-87 MG [24] = experiment: Photodynamic antitumor activity against human U87 cells assessed as inhibition of cell growth at 0.001 to 30 uM incubated for 60 mins followed by compound washout and light irradiation measured after 72 hrs by MTT assay; type: functional, cell-based; settings: U-87MG ATCC, dose 0.001-30 µM
# [25] = Toxicity in mouse implanted with mouse 4T1 cells assessed as change in body weight at 5 mg/kg,TOP administration measured after 12 days; type: organism-based; settings: in vivo, topical_or_ocular, 288 h, time 12 day
inhibition [3],IC50 (A549 [5]),inhibition [12],IC50 (U-87 MG [16]),inhibition [18],inhibition [20],Compound,Activity (A549 [1]),Activity (U-87 MG [13]),Activity (A549 [14]),Activity (U-87 MG [24]),also measured
inactive,0.2 µM,Active,0.05 µM,Active,inactive,Cc1c(I)c(C)n2c1C=C1C=C(I)C(CCC(=O)NCCCCCCNC(=O)c3ccc(S(N)(=O)=O)cc3)=[N+]1[B-]2(F)F,Dose-Dependent Effect,inactive,inactive,Dose-Dependent Effect,Activity (U-87 MG [2]): Active; Activity (4T1 [4]): Active; inhibition [6]: Active; Activity (4T1 [7]): Active; Activity (U-87 MG [8]): Active; Activity (U-87 MG [9]): Active; Activity (U-87 MG [10]): inactive; Activity (U-87 MG [11]): Active; Activity (U-87 MG [15]): Active; inhibition [17]: Active; Activity [19]: Non-Toxic; Activity (4T1 [21]): Active; Activity (4T1 [22]): inactive; Activity (U-87 MG [23]): inactive; Activity [25]: Non-Toxic
inactive,0.4 µM,Active,0.3 µM,Active,inactive,Cc1c(Br)c(C)n2c1C=C1C=C(Br)C(CCC(=O)NCCCCCCNC(=O)c3ccc(S(N)(=O)=O)cc3)=[N+]1[B-]2(F)F,Dose-Dependent Effect,inactive,inactive,Dose-Dependent Effect,–
–,21.3 µM,–,18.9 µM,–,–,Cc1cc(C)n2c1C=C1C=CC(CCC(=O)NCCCCCCNC(=O)c3ccc(S(N)(=O)=O)cc3)=[N+]1[B-]2(F)F,–,–,–,–,–
